Data: patent US20260193268A1, “TRICYCLIC PI3Ka INHIBITOR, PREPARATION METHOD THEREFOR, AND PHARMACEUTICAL USE THEREOF” (WIGEN BIOMEDICINE TECHNOLOGY (SHANGHAI) CO., LTD., priority 2022, published 2026)
Like-named read-outs stand apart in the source and are kept apart here.

Assays:
[1] = test system: MCF-7 cells (with PI3Kα E545K mutation); experiment: In vitro inhibition of MCF-7 cell proliferation (CellTiter-Lumi); format: cell-based; settings: Homo sapiens, MCF7, 144 h
Method: Biological Example 3. Assay for In Vitro Inhibition of MCF-7 Cell Proliferation by Compounds of the Present Disclosure
MCF-7 cells (with PI3Kα E545K mutation) were seeded into a 384-well plate (Fisher 142762) at 2000 cells per well. The next day, serially diluted compounds were added, and 144 h after the addition, CellTiter-Lumi (Beyotime C0068XL) was added to measure the ATP content in the cells. The growth of the cells was evaluated, and the IC50 for the inhibition of cell growth by the compounds was calculated.

[2] = test system: HCC1954 cells (with PI3Kα H1047R mutation); experiment: In vitro inhibition of HCC1954 cell proliferation (CellTiter-Lumi); format: cell-based; settings: Homo sapiens, HCC1954, 144 h, HCC1954 cells, 144 h, CellTiter-Lumi
Method: Assay for In Vitro Inhibition of HCC1954 Cell Proliferation by Compounds of the Present Disclosure
The growth of the cells was evaluated, and the IC50 for the inhibition of cell growth by the compounds was calculated.

[3] = numeric values, read-out: Inhibitory activity against MCF-7 cells (IC50)
[4] = numeric values, read-out: Inhibitory activity against HCC1954 cells (IC50)
[5] = class symbols, read-out: Inhibitory activity against MCF-7 cells (IC50), class symbols
[6] = class symbols, read-out: Inhibitory activity against HCC1954 cells (IC50), class symbols

IC50 [1, 3]	IC50 [2, 4]	IC50 [1, 5]	IC50 [2, 6]	SMILES
0.4 nM	3.4 nM	–	–	C=CC(=O)Nc1ncc(N2CC(N3CCN(c4ccc5c(c4)-c4nc(N6C(=O)OC[C@H]6C(F)F)cn4CCO5)CC3)C2)cn1 [Compound 162]
0.5 nM	6.6 nM	–	–	C=CC(=O)Nc1ncc(N2CC(N3CCN(c4ccc5c(c4)-c4nc(N6C(=O)OC[C@H]6C(F)F)cn4CCO5)CC3)C2)cc1C [Compound 163]
3 nM	53 nM	–	–	C=CC(=O)N1CCn2nc(N3CC(N4CCN(c5ccc6c(c5)-c5nc(N7C(=O)OC[C@H]7C(F)F)cn5CCO6)CC4)C3)cc2C1 [Compound 164]
3.4 nM	30 nM	–	–	CC#CC(=O)N1CCc2cc(N3CC(N4CCN(c5ccc6c(c5)-c5nc(N7C(=O)OC[C@H]7C(F)F)cn5CCO6)CC4)C3)ccc21 [Compound 165]
1.2 nM	9.4 nM	–	–	C=CC(=O)N1CCc2c1ccc(N1CC(N3CCN(c4ccc5c(c4)-c4nc(N6C(=O)OC[C@H]6C(F)F)cn4CCO5)CC3)C1)c2F [Compound 166]
219 nM	544 nM	–	–	C=CC(=O)N1CCc2cc(N3CC(N4CCN(c5ccc6c(c5)-c5nc(N7C(=O)OC[C@H]7C(F)F)cn5CCO6)CC4)C3)cnc21 [Compound 167]
6.9 nM	4.9 nM	–	–	COCC#CC(=O)Nc1ccc(N2CC(N3CCN(c4ccc5c(c4)-c4nc(N6C(=O)OC[C@H]6C(F)F)cn4CCO5)CC3)C2)cc1 [Compound 168]
0.1 nM	1 nM	–	–	C=CC(=O)N1CCc2nc(N3CC(N4CCN(c5ccc6c(c5)-c5nc(N7C(=O)OC[C@H]7C(F)F)cn5CCO6)CC4)C3)ccc21 [Compound 169]
17 nM	77 nM	–	–	NC/C=C/C(=O)Nc1ccc(N2CC(N3CCN(c4ccc5c(c4)-c4nc(N6C(=O)OC[C@H]6C(F)F)cn4CCO5)CC3)C2)cc1 [Compound 170]
4.5 nM	14 nM	–	–	CC(C)(C=C(C#N)C(=O)Nc1ccc(N2CC(N3CCN(c4ccc5c(c4)-c4nc(N6C(=O)OC[C@H]6C(F)F)cn4CCO5)CC3)C2)cc1)N1CCC1 [Compound 171]
0.2 nM	3.6 nM	–	–	C=CC(=O)Nc1ccc(N2CC(N3CCN(c4ccc5c(c4)-c4nc(N6C(=O)OC[C@H]6C(F)F)cn4CCO5)CC3)C2)c(C#N)c1 [Compound 172]
0.3 nM	4 nM	–	–	C=CC(=O)Nc1ccc(N2CC(N3CCN(c4ccc5c(c4)-c4nc(N6C(=O)OC[C@H]6C(F)F)cn4CCO5)CC3)C2)cc1OC [Compound 173]
26 nM	166 nM	–	–	C=CC(=O)Nc1ccc(N2CCN(c3ccc4c(c3)-c3nc(N5C(=O)OC[C@H]5C(F)F)cn3CCO4)CC2)cc1 [Compound 174]
0.2 nM	4.9 nM	–	–	C=CC(=O)Nc1ccc(N2CC(N3CCN(c4ccc5c(c4)-c4nc(N6C(=O)OC[C@H]6CF)cn4CCO5)CC3)C2)cc1 [Compound 176]
0.1 nM	2.2 nM	–	–	C=CC(=O)N1CCc2cc(N3CC(N4CCN(c5ccc6c(c5)-c5nc(N7C(=O)OC[C@H]7C(F)F)cn5CCO6)CC4)C3)c(F)cc21 [Compound 177]
–	–	< 50 nM	< 50 nM	C=CC(=O)Nc1ccc(N2CC(N3CCN(c4ccc5c(c4)-c4nc(N6C(=O)CC[C@H]6C(F)F)cn4CCO5)CC3)C2)cc1 [Compound 178]
–	–	50 to 100 nM	50 to 100 nM	C=CC(=O)Nc1ccc(C#CC2CCN(c3ccc4c(c3)-c3nc(N5C(=O)OC[C@H]5C(F)F)cn3CCO4)CC2)cc1 [Compound 179]
–	–	< 50 nM	50 to 100 nM	C=CC(=O)Nc1ccc(C2CN(c3ccc(-c4ccc5c(c4)-c4nc(N6C(=O)OC[C@H]6C(F)F)cn4CCO5)cc3)C2)cc1 [Compound 181]
–	–	50 to 100 nM	50 to 100 nM	C=CC(=O)Nc1ccc(N2CCN(CC#Cc3ccc4c(c3)-c3nc(N5C(=O)OC[C@H]5C(F)F)cn3CCO4)CC2)cc1 [Compound 182]
21 nM	219 nM	–	–	C=CC(=O)Nc1ccc(N2CCC3(CC2)CCN(c2ccc4c(c2)-c2nc(N5C(=O)OC[C@H]5C(F)F)cn2CCO4)CC3)cc1 [Compound 183]
–	–	< 50 nM	< 50 nM	N#C/C(=C\CN)C(=O)Nc1ccc(N2CC(N3CCN(c4ccc5c(c4)-c4nc(N6C(=O)OC[C@H]6C(F)F)cn4CCO5)CC3)C2)cc1 [Compound 184]
–	–	< 50 nM	< 50 nM	CNCC#CC(=O)Nc1ccc(N2CC(N3CCN(c4ccc5c(c4)-c4nc(N6C(=O)OC[C@H]6C(F)F)cn4CCO5)CC3)C2)cc1 [Compound 185]
4.3 nM	32 nM	–	–	CNC/C=C/C(=O)Nc1ccc(N2CC(N3CCN(c4ccc5c(c4)-c4nc(N6C(=O)OC[C@H]6C(F)F)cn4CCO5)CC3)C2)cc1 [Compound 186]
–	–	< 50 nM	< 50 nM	CC=C(C#N)C(=O)Nc1ccc(N2CC(N3CCN(c4ccc5c(c4)-c4nc(N6C(=O)OC[C@H]6C(F)F)cn4CCO5)CC3)C2)cc1 [Compound 187]

IC50 [1, 3]	IC50 [2, 4]	IC50 [1, 5]	IC50 [2, 6]	SMILES
–	–	< 50 nM	50 to 100 nM	CC(C)=CC(=O)CCCC(=O)N1CCC(/C=C/c2ccc3c(c2)-c2nc(N4C(=O)OC[C@H]4C(F)F)cn2CCO3)CC1 [Compound 189]
–	–	< 50 nM	50 to 100 nM	CC(C)=CC(=O)CCCC(=O)N1CCN(Cc2ccc3c(c2)-c2nc(N4C(=O)OC[C@H]4C(F)F)cn2CCO3)CC1 [Compound 190]
–	–	< 50 nM	50 to 100 nM	CC(C)=CC(=O)CCC(=O)N1CCC(C#Cc2ccc3c(c2)-c2nc(N4C(=O)OC[C@H]4C(F)F)cn2CCO3)CC1 [Compound 191]
–	–	< 50 nM	50 to 100 nM	CC(C)=CC(=O)CCC(=O)N1CCN(Cc2ccc3c(c2)-c2nc(N4C(=O)OC[C@H]4C(F)F)cn2CCO3)CC1 [Compound 192]
–	–	< 50 nM	< 50 nM	C=CC(=O)N1CCc2cc(N3CC(N4CCN(c5ccc6c(c5)-c5nc(N7C(=O)OC[C@H]7C(F)F)cn5CCO6)CC4)C3)cc(C#N)c21 [Compound 193]
0.1 nM	1.2 nM	–	–	C=CC(=O)Nc1ccc(N2CC(N3CCN(c4ccc5c(c4)-c4nc(N6C(=O)OC[C@H]6C(F)F)cn4CCO5)CC3)C2)cc1Cl [Compound 194]
0.3 nM	4.6 nM	–	–	C=CC(=O)Nc1ccc(N2CC(N3CCN(c4ccc5c(c4)-c4nc(N6C(=O)OC[C@H]6C(F)F)cn4CCO5)CC3)C2)c(Cl)c1 [Compound 195]
–	–	> 1000 nM	> 1000 nM	C=CC(=O)Nc1ccc(N2CCN(c3ccc(-c4ccc5c(c4)-c4nc(N6C(=O)OC[C@H]6C(F)F)cn4CCO5)cc3)CC2)cc1 [Compound 196]
–	–	< 50 nM	100 to 1000 nM	C=CC(=O)N1CC(N2CCC(c3ccc(-c4ccc5c(c4)-c4nc(N6C(=O)OC[C@H]6C(F)F)cn4CCO5)cc3)CC2)C1 [Compound 197]
–	–	50 to 100 nM	100 to 1000 nM	C=CC(=O)N1CCC(C2CN(c3ccc(-c4ccc5c(c4)-c4nc(N6C(=O)OC[C@H]6C(F)F)cn4CCO5)cc3)C2)CC1 [Compound 198]
–	–	< 50 nM	100 to 1000 nM	C=CC(=O)N1CC(C2CCN(c3ccc(-c4ccc5c(c4)-c4nc(N6C(=O)OC[C@H]6C(F)F)cn4CCO5)cc3)CC2)C1 [Compound 199]
–	–	< 50 nM	50 to 100 nM	C=CC(=O)Nc1ccc2c(c1)CCN(CC#Cc1ccc3c(c1)-c1nc(N4C(=O)OC[C@H]4C(F)F)cn1CCO3)C2 [Compound 200]
–	–	< 50 nM	50 to 100 nM	C=CC(=O)Nc1ccc(C2CN(CC#Cc3ccc4c(c3)-c3nc(N5C(=O)OC[C@H]5C(F)F)cn3CCO4)C2)cc1 [Compound 201]
–	–	< 50 nM	50 to 100 nM	C=CC(=O)Nc1ccc(N2CCC(C#Cc3ccc4c(c3)-c3nc(N5C(=O)OC[C@H]5C(F)F)cn3CCO4)CC2)cc1 [Compound 202]
–	–	< 50 nM	50 to 100 nM	C=CC(=O)Nc1ccc(N2CC(C#Cc3ccc4c(c3)-c3nc(N5C(=O)OC[C@H]5C(F)F)cn3CCO4)C2)cc1 [Compound 203]
–	–	< 50 nM	50 to 100 nM	C=CC(=O)Nc1ccc2c(c1)CCN(C1CCN(c3ccc4c(c3)-c3nc(N5C(=O)OC[C@H]5C(F)F)cn3CCO4)CC1)C2 [Compound 204]
–	–	< 50 nM	50 to 100 nM	C=CC(=O)Nc1ccc2c(c1)CCN2CCN1CCN(c2ccc3c(c2)-c2nc(N4C(=O)OC[C@H]4C(F)F)cn2CCO3)CC1 [Compound 205]
–	–	< 50 nM	50 to 100 nM	C=CC(=O)N1CCc2cc(N3CCN(c4ccc5c(c4)-c4nc(N6C(=O)OC[C@H]6C(F)F)cn4CCO5)CC3)ccc2C1 [Compound 206]
–	–	< 50 nM	50 to 100 nM	C=CC(=O)N1CCc2cc(CN3CCN(c4ccc5c(c4)-c4nc(N6C(=O)OC[C@H]6C(F)F)cn4CCO5)CC3)ccc2C1 [Compound 207]
–	–	< 50 nM	50 to 100 nM	C=CC(=O)Nc1ccc(N2CC(/C=C/c3ccc4c(c3)-c3nc(N5C(=O)OC[C@H]5C(F)F)cn3CCO4)C2)cc1 [Compound 208]
–	–	< 50 nM	50 to 100 nM	C=CC(=O)Nc1ccc(N2CCC(/C=C/c3ccc4c(c3)-c3nc(N5C(=O)OC[C@H]5C(F)F)cn3CCO4)CC2)cc1 [Compound 209]
–	–	< 50 nM	50 to 100 nM	C=CC(=O)Nc1ccc(N2CCC(C/C=C/c3ccc4c(c3)-c3nc(N5C(=O)OCC5C(F)F)cn3CCO4)CC2)cc1 (stereo not shown) [Compound 210]
–	–	< 50 nM	< 50 nM	CC(C)(O)C=C(C#N)C(=O)Nc1ccc(N2CC(N3CCN(c4ccc5c(c4)-c4nc(N6C(=O)OC[C@H]6C(F)F)cn4CCO5)CC3)C2)cc1 [Compound 211]
